The values below come from patent publication US7521395B2, “Synergistically acting herbicidal mixtures” (BASF Aktiengesellschaft, priority 2002, dated 2009).

Common to all, as to assay: Herbicidal action, post-emergence treatment, field trial
Assay type in all cases: in vivo
What all share (conditions): application rate 1250 g/ha ai, scale 0 = no damage, 100 = complete destruction

Assay [1] concerns Tagetes minuta. The text has this:
(§1) The mixtures according to the invention were applied pre- or post-emergence (foliar treatment). The herbicidal compounds of component B and of component C were applied in the formulation in which they are present as commercially available product.
(§2) The herbicidally active compounds of components A), B) and C) were applied in succession or jointly, in the latter case in some cases as a tank mix and in some cases as a readymix, in the form of emulsions, aqueous solutions or suspensions, the vehicle being water (300-400 l/ha). In the case of the field trials, application was effected with the aid of a mobile plot sprayer.
(§3) The test period extended over 3 to 8 weeks, and the stands were also observed at later points in time.
(§4) Damage by the herbicidal compositions was evaluated with reference to a scale of 0% to 100% in comparison with untreated control plots. 0 means no damage and 100 means complete destruction of the plants.
(§5) In these examples, the value E at which only an additive effect of the individual active ingredients is to be expected was calculated by the method of S. R. Colby (Calculating synergistic and antagonistic responses of herbicide combinations, Weeds 15, 20 pp (1967)).
(§6) This was done using the formula
(§7) [formula] where • X=Percentage of the herbicidal action of component X) at an application rate of x; • Y=Percentage of the herbicidal action of component Y) at an application rate of y; • E=expected herbicidal action of component X)+Y) at rates of application x+y (in %).
(§8) If the value observed exceeds the value E calculated in accordance with Colby's formula, then synergism is present.

Assay [2] deals with Anoda cristata.
Text: as §1, §2, §3, §4, §5, §6, §7, §8

Assay [3] relates to Sorghum halepense.
Text: as §1, §2, §3, §4, §5, §6, §7, §8

Take `CCNc1nc(Cl)nc(NC(C)C)n1` [atrazine]: the “Tagetes minuta Damage [%]” value in assay [1] stood at 50%. In addition, the “Anoda cristata Damage [%]” value in assay [2] is 70%. Moreover, the “Sorghum halepense Damage [%]” value in assay [3] stood at 10%.
